“Also recorded” adds a separate entry of the source.
Tests used:
[1] = tested on: bladder epithelial cells, urothelium; assay: BC injection into bladder in vivo; design: species or system mouse
Procedure: 2 months old female mice were anesthetized using Avertin or Isoflurane as anesthetic. Using forceps, the top of the urethral orifice was pinched and pulled up without obstructing the urethra at a ˜45° angle. The catheter tubing end was attachded to a 1 mL syringe, and the tip of the tubing rubbed in medicine mineral jelly. The jelly-topped catheter was carefully inserted into the urethra at a ˜45° angle. The syringe was detached from the catheter, and the mouse's stomach was palpated to produce urine. Using another syringe and catheter, the urine that is produced was aspirated, and emptied into other towel. 20 uL of the BC solution (or PBS) was pipetted directly into the catheter using a pipet tip. It was ensured that the pipet tip contacted the catheter, then the cylinder was fully depressed for ˜3 seconds. The liquid was pushed into the bladder by injecting ˜20 uL of air using a syringe. The catheter was removed and the mouse put back into its cage.
We injected a solution of 0.004%, 0.06% BC into the bladder of anesthetized adult female mice to test the effects of the drug on bladder epithelial cells, urothelium. […] However, six days after treatment, urothelium had disappeared from approximately 80% of 0.06% BC treated bladder, some mesenchymal cells were found on straining with antibodies against PDGFRβ and NG2.

SSCs = assay: SSC kinetics after BC treatment in DND1-EGFP mouse; format: in vivo
Procedure: (§1) Host mice were anesthetized. A glass needle was back-loaded with the drug and 0.02% bromophenol blue to track the success of the injection and extent of delivery into the tissue. The mixture was injected into the rete-testis.
We used a DND1 (dead end homolog 1)-EGFP mouse to investigate SSC kinetics after BC treatment. In this transgenic mouse, all SSCs including undifferentiated SSCs and differentiating spermatogonia express EGFP. 0.02% BC (or PBS control) was injected into seminiferous tubules of adult testis. […] Although Sertoli cells and germ cells were lost in drug affected tubules, cord structure, Leydig cells, and PMCs were normal.

enteric nerve plexus = settings: GI tract treated in vivo; cited from earlier work
donor spermatogenesis = assay: Testicular cell transplantation 7 days post BC treatment; format: in vivo, mouse; settings: CAG-EGFP pup testicular cells transplanted 7 days post BC
Procedure: 10-15 μl of approximately 1×10^6/ml isolated Sertoli cells or 1×10^8/ml (testicular cells) were injected through the rete testis into the seminiferous tubules of a host mouse on day 4 or day 7 after ablation treatment. A glass needle was back-loaded with the cell suspension and 0.04% Trypan blue to track the efficiency of the injection.
To determine whether the host testes depleted for both Sertoli and germ cells could be used as a scaffold for engraftment of multiple cell types, we performed testicular cell transplantation 7 days post BC treatment (FIG. 7). Nineteen days after testicular cell transplantation from CAG-EGFP pups into a treated host testis, donor Sertoli cells and SSCs colonized. Donor SSCs proliferated with support from donor Sertoli cells, initiated meiosis, and progressed to the spermatocyte stage. EGFP positive leptotene and pachytene spermatocyte were detected. […] Most of these interstitial EGFP bright donor cells were Leydig cells, and some donor PMC colonization was also detected. […] Round spermatids and elongated spermatids generated from donor SSCs with support from donor Sertoli cells were detected in the host testis. In 9/13 testes, donor Sertoli cell and SSC colonization was observed, and full spermatogenesis was detected in 4 of these hosts.

Sertoli cells = assay: Adult Sertoli cell depletion in vivo (injection into rete testis); design: species or system mouse
Procedure: as §1
(§2) Adult mouse testis and canine testis tissues were fixed in 4% (wt/vol) paraformaldehyde in PBS at 4° C. overnight and cryoembedded in OCT compound (Sakura Finetek). Samples were cut into 14-μm-thick cryosections. Incubation with primary antibodies was performed overnight at 4° C., followed by 2 washes, and incubation with secondary antibodies for 1 h at room temperature. Nuclei were counterstained with Hoechst 33342 dye. Samples were mounted on glass slides and imaged with a confocal laser microscope (Zeiss 780).
We injected a solution of 0.02% BC (or PBS as a control) into the rete testis of anesthetized adult male mice to test the effects of the drug on adult Sertoli cells. To detect Sertoli cells easily, we used a Sox9-ECFP transgenic mouse (FIG. 5). […] However, four days after treatment, Sertoli cells had disappeared from approximately 30-40% of seminiferous tubules.

[2] = tested on: Sertoli cells from canine testis; assay: Depletion of canine Sertoli cells in vitro (testis fragment culture); format: cell-based; settings: cultured 3 days
Procedure: Fragments of the mouse testis were incubated with 0.02% BC for 10 min. After washing several times with PBS, tissues were placed atop 1.5% agarose blocks (214530; Difco), prepared and placed in 6 well tissue culture plates (353046; Falcon) with ˜500 μl of 10% FBS+DMEM (11995-065; Gibco) to reach halfway up the side of the block. After culture, tissues were washed in PBS and fixed for immunofluorescence. The dog testis tissues were incubated with 0.02% or 0.03% BC for 10 min and cultured with 10% KnockOut Serum Replacement (KSR) (Invitrogen; 10828-028)+DMEM (Yokonishi, T., et al. Methods in Molecular Biology 927: 479-488 (2013)). The culture incubator was supplied with 5% (vol/vol) carbon dioxide in air and maintained at 37° C.
as §2
We used the same procedure as described for the mouse testis to test whether BC could eliminate Sertoli cells from canine testis. Six to 8 […] canine testis tissues were cut into fragments and incubated with 0.02% or 0.03% BC for 10 min (or PBS as a control), washed, and cultured for 3 days (FIG. 4). At the end of that time, the testis was fixed and stained for immunofluorescence analysis using antibodies against SOX9 and the germ cell marker, MVH (mouse vasa homolog). In control tissue, both Sertoli cells and germ cells were detected in seminiferous tubules. […] In control canine testis, GATA-4 positive PMCs and Leydig cells were detected between tubules.

**Q.** For benzalkonium chloride [BC], which inflammation in bladder ([1]; 0.004% BC) is on record?
**A.** Its inflammation in bladder is “did not cause inflammation”.

**Q.** What about the urothelium depletion ([1]; 0.004% BC, day 6) of the same substance?
**A.** The urothelium depletion was “urothelium depletion was not detected”.

**Q.** And the “macrophage invasion in bladder” value ([1]; 0.03% BC (so in the source))?
**A.** Its value is “Macrophage invasion were observed”.

**Q.** What about the “urothelium detachment in the lumen of the bladder” value ([1]; 0.06% BC, day 6) of the same substance?
**A.** The value was “urothelium detachment was observed”.

**Q.** What about the “part of treated bladder from which urothelium had disappeared” value ([1]; 0.06% BC, six days after treatment) of the same substance?
**A.** The value was “approximately 80%”.

**Q.** What about the “SSC loss (DND1-EGFP)” value (SSCs; 0.02% BC into seminiferous tubules, three days after Sertoli cells were depleted (7 days post BC)) of the same substance?
**A.** The value was “SSCs had also disappeared”.

**Q.** And the “cord structure, Leydig cells and PMCs in drug affected tubules” value (SSCs; 0.02% BC, 7 days post treatment)?
**A.** The value was “normal”.

**Q.** And the “removal of enteric nerve plexus” value (enteric nerve plexus)?
**A.** Its value is “remove the mouse and rat enteric nerve plexus”.

**Q.** And the “hosts with full spermatogenesis (of the colonized testes)” value (donor spermatogenesis)?
**A.** The value was 4.

**Q.** And the “testes with donor Sertoli cell and SSC colonization” value (donor spermatogenesis)?
**A.** Its value is 9/13.

**Q.** What about the “Sertoli cell depletion based on SOX9 expression” value (Sertoli cells; 0.02% BC into rete testis, day 3) of the same substance?
**A.** The value was “Sertoli cell depletion was not detected”.

**Q.** What about the “seminiferous tubules from which Sertoli cells had disappeared” value (Sertoli cells; 0.02% BC into rete testis, four days after treatment) of the same substance?
**A.** Its value is 30-40%.

**Q.** What about the “Caspase3 positive Sertoli cells (apoptosis)” value (Sertoli cells; 0.02% BC, 4 days after treatment) of the same substance?
**A.** Its value is “did not detect Caspase3 positive Sertoli cells”.

**Q.** And the “Leydig cells and endothelial cells (3βHSD, PECAM1)” value (Sertoli cells; 0.02% BC, day 4)?
**A.** Its value is “not obviously affected”.

**Q.** And the “PMCs (SMA staining)” value (Sertoli cells; 0.02% BC, day 4)?
**A.** Its value is “PMCs were intact”.

**Q.** What about the “SSCs in drug affected tubules (STRA8, Hu C/D, c-KIT)” value (Sertoli cells; 0.02% BC, day 4) of the same substance?
**A.** The value was “some SSCs were found along the basal lamina”.

**Q.** What about the “basic tubular structure (anti-Laminin staining)” value (Sertoli cells; 0.02% BC, day 4) of the same substance?
**A.** The value was “basic tubular structure was also intact”.

**Q.** And the “macrophage invasion and proliferation (F4/80)” value (Sertoli cells; 0.02% BC, day 4)?
**A.** The value was “many macrophages positive for F4/80 surrounded the affected tubules and some had invaded inside”.

**Q.** What about the “Sertoli cell elimination (summary)” value (Sertoli cells; 4 days after 0.02% BC treatment) of the same substance?
**A.** Its value is “Sertoli cells were eliminated”.

**Q.** And the “system-wide / side effects after drug injection into rete testis” value (Sertoli cells; mouse, BC injection)?
**A.** The value was “no apparent system-wide effects; also recorded: no discernable side effects”.

**Q.** What about the “Sertoli cell depletion (SOX9)” value ([2]; 0.02% BC 10 min) of the same substance?
**A.** Its value is “Sertoli cells were depleted, particularly from the peripheral regions of the tissue”.

**Q.** What about the “SSC survival in Sertoli-depleted seminiferous tubules” value ([2]; 0.03% BC 10 min) of the same substance?
**A.** Its value is “some SSCs survived”.

**Q.** And the “Sertoli cell depletion (SOX9)” value ([2]; 0.03% BC 10 min)?
**A.** The value was “all Sertoli cells were absent”.

**Q.** What about the “effect on PMCs, SSCs and Leydig cells” value ([2]; 0.03% BC 10 min) of the same substance?
**A.** The value was “caused some PMC depletion, and reduced the number of SSCs and Leydig cells”.

From patent US11523995B2, “Compositions and methods for ablating niche cells in testis and other epithelial cells and methods relating thereto” (Duke University, priority 2017, dated 2022)
